According to EP0503537B1, “6,9 Bis(substituted-amino)benzo-[g]isoquinoline-5,10-diones” (THE UNIVERSITY OF VERMONT, priority 1991, dated 1992):
In brackets after ≈: the same amount, converted by molar mass. Read-outs that look alike come from different tables or passages of the source.

Experiments:
[1] = test system: human colon adenocarcinoma cell line (Lovo); experiment: MTT cytotoxicity assay on human colon adenocarcinoma Lovo cells; format: cell-based; details: read-out: IC50 µg/ml±S.D. LoVo
Protocol: (§1) The evaluation of the "in vitro" cytotoxic activity of the compounds of the invention was performed using a human colon adenocarcinoma cell line (Lovo) isolated from a metastatic nodule and a subline with aquired resistance to a number of antitumor agents, among which doxorubicin, VP-16 and vincristine. […] The compounds were tested according to the MTT assay (Mosman, T., "Rapid Colorimetric assay for cellular growth and survival: application to proliferation and cytotoxicity assay", J. Immunol. Methods, (1983), 65, 55-63; Green, L.M., "Rapid colorimetric assay for cell viability; application to the quantitation of cytotoxic and growth inhibitory lymphokines", J. Immunol. Methods, (1984), 70, 257-268) in comparison with mitoxantrone, ametantrone and doxorubicin.
(§2) In vitro biological evaluation: MTT assay on human colon adenocarcinoma Lovo cells.
(§3) The MTT assay was performed according to Mosmann, T., J. Immunol. Methods, (1983), 65, 55-63 and Green, L. M., J. Immunol. Methods, (1984), 70, 257-268.
(§4) Immediately before use, compounds and reference standards are dissolved in proper solvent and subsequently further diluted in complete culture medium. Human colon adenocarcinoma cells Lovo and the subline resistant to doxorubicin (Lovo/DX) (2.5. 10^4 cells/ml) are plated in 96-well plates and preincubated for 24 hours in culture medium. After this time, the cells are exposed to drugs for 144 hours, then the thiazolyl blue tetrazolium bromide solution (MTT solution) is added and the cells are reincubated for 4 hours. The supernatant is removed and 150 µl of dimethylsulfoxide are added to solubilize formazan crystals. The plate is read at 570 nm with microplate reader and the inhibiting concentration of 50% cellular growth (IC50; µg/ml) is calculated.

Lovo/DX = experiment: MTT cytotoxicity assay on doxorubicin-resistant subline Lovo/DX; format: cell-based, human; details: for IC50: Homo sapiens, LoVo/DX, MTT assay, 144 hrs drug exposure, read-out: IC50 µg/ml±S.D. LoVo/Dx; for R.I.: R.I. = (IC50 LoVo/Dx)/(IC50 LoVo); for cross resistance with mitoxantrone and ametantrone: resistant subline Lovo/DX
Protocol: as §1, §2, §3, §4

P388 Murine Leukemia [2] = experiment: In vivo P388 murine leukemia (iv/iv, d 1, 4, 7); details: for T/C% (range): median survival time; for TOX: toxic deaths/total number of mice; for LTS: tumor free at 60 days
Protocol: P388 Murine Leukemia cells were maintained in vivo by serial intraperitoneal (i.p.) injections of 10^6 cells in DBA2 mice. For test purposes, CDF1 mice were inoculated intravenously (i.v.) with 10^6 P388 cells and treatment was initiated 24 hr later. The i.v. dose of drug was administered on days 1, 4 and 7. Mice were observed daily for signs of toxicity and survival. The date of death was recorded for each animal that died or was sacrificed during the 60 day study. The median survival time (MST) for each treatment group was calculated and the % T/C was determined using the following formula: % T/C = [(MST treated)/(MST control)] x 100 [formula]

L1210 murine leukemia = experiment: In vivo ascitic L1210 murine leukemia (ip/ip, d 1, 5, 9), protocol b, 10^5 cells; design: species or system CDF1 mice; details: for %T/C: median survival time; for TOX: toxic deaths/total No. of mice; for LTS: tumor free at 60 days
Protocol: Dosages of the drugs were administered ip according to preestablished protocols, usually at 4-day intervals. The studies were done over a 60-day period and the date of death for each animal was recorded. The % T/C was determined using the mean survival time (MST) for each group according to the formula % T/C = [(MST treated)/(MST control)] x 100 [formula]
• a) L1210 murine leukemia cells were maintained in vivo by weekly intraperitoneal (ip) injections of 10^6 cells in BDF1 mice. For test purposes, mice were inoculated i.p. with 10^6 L1210 cells and treatment was initiated 24 hours later. The desired dose of drug was administered on days 1, 5 and 9. Mice were observed daily for signs of toxicity and survival. The date of death was recorded for each animal that died or was sacrificed during the 60-day study. […] For test purposes, CDF1 mice were inoculated i.p. with 10^5 L1210 cells and treatment was initiated 24 hours later. The desired dose of drug was administered on days 1, 5 and 9. Mice were observed daily for signs of toxicity and survival. The date of death was recorded for each animal that died or was sacrificed during the 60-day study. The median survival time (MST) for each treatment group was calculated and the % T/C was determined using the following formula: % T/C = [(MST treated)/(MST control)] x 100 [formula]

P388 Murine Leukemia [3] = experiment: In vivo ascitic P388 murine leukemia (ip/ip, d 1, 5, 9); design: species or system CDF1 mice; details: for % T/C (range): median survival time; for TOX: toxic deaths/total No. of mice
Protocol: Treatment was initiated approximately 24 hours after tumor transplantation and dosages of the drug were administered ip (P388 ip/ip) or iv (P388 iv/iv) according to preestablished protocols, usually at 3-day (P388 iv/iv) or 4-day (P388 ip/ip) intervals. The studies were done over a 60-day period and the date of death for each animal was recorded. The % T/C was determined using the mean survival time (MST) for each group according to the formula % T/C = [(MST treated)/(MST control)] x 100 [formula]
P388 Murine Leukemia cells were maintained in vivo by serial intraperitoneal (ip) injections of 10^6 cells in DBA2 mice. For test purposes, CDF1 mice were inoculated i.p. with 10^6 P388 cells and treatment was initiated 24 hours later. The i.p dose of drug was administered on days 1, 5 and 9. Mice were observed daily for signs of toxicity and survival. The date of death was recorded for each animal that died or was sacrificed during the 60-day study. The median survival time (MST) for each treatment group was calculated and the % T/C was determined using the following formula: % T/C = [(MST treated)/(MST control)] x 100 [formula]

[4] = MTT assay, 144 hrs drug exposure

Q: How did the IC50 [1, 4] turn out when `O=C1c2ccncc2C(=O)c2c(NCCN3CCOCC3)ccc(NCCN3CCOCC3)c21` [Compound 10e, 6,9-Bis{[2-(4'-morpholino)ethyl]amino}benzo[g]isoquinoline-5,10-dione] was run?
A: Its IC50 is 5.32 ± 1.55 µg/mL (≈ 11.4 µM).

Q: What about the IC50 (Lovo/DX) of the same compound?
A: The IC50 was 2.29 ± 0.67 µg/mL (≈ 4.92 µM).

Q: And the R.I. (Lovo/DX)?
A: The R.I. was 0.4.

Q: And the “cross resistance with mitoxantrone and ametantrone” value (from here on “cross resistance”) (Lovo/DX)?
A: Its value is “no cross resistance”.

Q: With `CCN(CC)CCNc1ccc(NCCN(CC)CC)c2c1C(=O)c1ccncc1C2=O` [Compound 10b, 6,9-Bis{[2-(diethylamino)ethyl]amino}benzo[g]isoquinoline-5,10-dione] as the compound, how does the IC50 [1, 4] read?
A: Its IC50 is 0.29 ± 0.05 µg/mL (≈ 0.663 µM).

Q: What about the IC50 (Lovo/DX) of the same compound?
A: The IC50 was 0.69 ± 0.1 µg/mL (≈ 1.58 µM).

Q: And the R.I. (Lovo/DX)?
A: Its R.I. is 2.4.

Q: And the “cross resistance” value (Lovo/DX)?
A: The value was “no cross resistance”.

Q: What does the source list for `O=C1c2ccccc2C(=O)c2c(NCCNCCO)ccc(NCCNCCO)c21` [Ametantrone, 1,4-bis{[2-(2-hydroxyethylamino)ethyl]amino}anthracene-9,10-dione, reference compound]?
A: IC50 [1, 4]: 0.33 ± 0.1 µg/mL (≈ 0.8 µM); IC50 (Lovo/DX): 33.4 ± 13.9 µg/mL (≈ 81 µM); R.I. (Lovo/DX): 101.2

Q: For `COc1cccc2c1C(=O)c1c(O)c3c(c(O)c1C2=O)C[C@@](O)(C(=O)CO)C[C@@H]3O[C@H]1C[C@H](N)[C@H](O)[C@H](C)O1` [Doxorubicin, reference compound], which IC50 [1, 4] is on record?
A: Its IC50 is 0.03 ± 0.009 µg/mL (≈ 0.0552 µM).

Q: And the IC50 (Lovo/DX)?
A: The IC50 was 4.28 ± 1.8 µg/mL (≈ 7.87 µM).

Q: And the R.I. (Lovo/DX)?
A: Its R.I. is 142.7.

Q: What does the source list for `CN(C)CCCNc1ccc(NCCCN(C)C)c2c1C(=O)c1ccncc1C2=O` [Compound 12c, 6,9-Bis{[3-(dimethylamino)propyl]amino}benzo[g]isoquinoline-5,10-dione]?
A: IC50 [1, 4]: 0.15 ± 0.07 µg/mL (≈ 0.366 µM); IC50 (Lovo/DX): 0.36 ± 0.04 µg/mL (≈ 0.879 µM); R.I. (Lovo/DX): 2.4; cross resistance with mitoxantrone and ametantrone (Lovo/DX): no cross resistance

Q: For `O=C1c2c(O)ccc(O)c2C(=O)c2c(NCCNCCO)ccc(NCCNCCO)c21` [Mitoxantrone, 5,8-dihydroxy-1,4-bis{[2-(2-hydroxyethylamino)ethyl]amino}anthracene-9,10-dione, reference compound], which “T/C% (range)” value (P388 Murine Leukemia [2]; 2 mg/kg/day iv days 1,4,7) is on record?
A: The value was 162(154-167) %.

Q: What about the TOX (P388 Murine Leukemia [2]; 2 mg/kg/day iv days 1,4,7) of the same compound?
A: The TOX was 0/42.

Q: What about the LTS (P388 Murine Leukemia [2]; 2 mg/kg/day iv days 1,4,7) of the same compound?
A: Its LTS is 0/42.

Q: What about the “T/C% (range)” value (P388 Murine Leukemia [2]; 3 mg/kg/day iv days 1,4,7) of the same compound?
A: Its value is 185(167-217) %.

Q: And the TOX (P388 Murine Leukemia [2]; 3 mg/kg/day iv days 1,4,7)?
A: Its TOX is 4/78.

Q: What about the LTS (P388 Murine Leukemia [2]; 3 mg/kg/day iv days 1,4,7) of the same compound?
A: Its LTS is 0/78.

Q: And the “T/C% (range)” value (P388 Murine Leukemia [2]; 4 mg/kg/day iv days 1,4,7)?
A: Its value is 118(89-133) %.

Q: And the TOX (P388 Murine Leukemia [2]; 4 mg/kg/day iv days 1,4,7)?
A: The TOX was 20/24.

Q: And the LTS (P388 Murine Leukemia [2]; 4 mg/kg/day iv days 1,4,7)?
A: The LTS was 0/24.

Q: And the “%T/C” value (L1210 murine leukemia; 1.5 mg/kg/day ip days 1,5,9)?
A: The value was 188%.

Q: And the TOX (L1210 murine leukemia; 1.5 mg/kg/day ip days 1,5,9)?
A: The TOX was 0/8.

Q: What about the LTS (L1210 murine leukemia; 1.5 mg/kg/day ip days 1,5,9) of the same compound?
A: Its LTS is 1/8.

Q: What about the “%T/C” value (L1210 murine leukemia; 3 mg/kg/day ip days 1,5,9) of the same compound?
A: Its value is 194%.

Q: What about the TOX (L1210 murine leukemia; 3 mg/kg/day ip days 1,5,9) of the same compound?
A: Its TOX is 1/8.

Q: What about the LTS (L1210 murine leukemia; 3 mg/kg/day ip days 1,5,9) of the same compound?
A: The LTS was 1/8.

Q: What about the IC50 ([1]; 144 h) of the same compound?
A: The IC50 was 0.01 ± 0.009 µg/mL (≈ 0.0225 µM).

Q: What about the IC50 (Lovo/DX) of the same compound?
A: Its IC50 is 0.29 ± 0.1 µg/mL (≈ 0.652 µM).

Q: And the R.I. (Lovo/DX)?
A: The R.I. was 29.0.

Q: What about the “LTS (day 60)” value (P388 Murine Leukemia [3]; 1.5 mg/kg/day ip days 1,5,9) of the same compound?
A: The value was 1/26.

Q: And the “% T/C (range)” value (P388 Murine Leukemia [3]; 1.5 mg/kg/day ip days 1,5,9)?
A: The value was 186(160-225) %.

Q: And the TOX (P388 Murine Leukemia [3]; 1.5 mg/kg/day ip days 1,5,9)?
A: Its TOX is 6/26.

Q: What about the “LTS (day 60)” value (P388 Murine Leukemia [3]; 3 mg/kg/day ip days 1,5,9) of the same compound?
A: Its value is 1/42.

Q: What about the “% T/C (range)” value (P388 Murine Leukemia [3]; 3 mg/kg/day ip days 1,5,9) of the same compound?
A: Its value is 173(142-205) %.

Q: What about the TOX (P388 Murine Leukemia [3]; 3 mg/kg/day ip days 1,5,9) of the same compound?
A: Its TOX is 21/42.

Q: Which IC50 [1, 4] does the source give for `O=C1c2ccncc2C(=O)c2c(NCCN3CCCC3)ccc(NCCN3CCCC3)c21` [Compound 10d, 6,9-Bis{[2-(1'-pyrrolidino)ethyl]amino}benzo[g]isoquinoline-5,10-dione] here?
A: The IC50 was 0.2 ± 0.03 µg/mL (≈ 0.461 µM).

Q: And the IC50 (Lovo/DX)?
A: The IC50 was 0.52 ± 0.15 µg/mL (≈ 1.2 µM).

Q: And the R.I. (Lovo/DX)?
A: The R.I. was 2.6.

Q: What about the “cross resistance” value (Lovo/DX) of the same compound?
A: The value was “no cross resistance”.

Q: Which results are given for `NCCCNc1ccc(NCCCN)c2c1C(=O)c1ccncc1C2=O` [Compound 12a, 6,9-Bis{[3-(amino)propyl]amino}benzo[g]isoquinoline-5,10-dione]?
A: IC50 [1, 4]: 1.64 ± 0.02 µg/mL (≈ 4.64 µM); IC50 (Lovo/DX): 20.9 ± 0.72 µg/mL (≈ 59.1 µM); R.I. (Lovo/DX): 12.7
